The subject of this assay is MV-4-11 cells. Put plainly: Gene expression microarray analysis (Affymetrix PrimeView) and GSEA. The assay is classed as cell-based, human. The arrangement: RFU PODN (11730768_x_at) / Fold change /veh PODN (11730768_x_at) / RFU LINC00158 (11744669_a_at) / Fold change /veh LINC00158 (11744669_a_at) / RFU DUSP10 (11751237_a_at) / Fold change /veh DUSP10 (11751237_a_at) / RFU ID3 (11757404_x_at) / Fold change /veh ID3 (11757404_x_at) / RFU PLEKHG5 (11737974_s_at) / Fold change /veh PLEKHG5 (11737974_s_at) / RFU LRRC4B (11730491_at) / Fold change /veh LRRC4B (11730491_at) / RFU GIMAP4 (11747438_a_at) / Fold change /veh GIMAP4 (11747438_a_at) / RFU KRT8 (11758183_x_at) / Fold change /veh KRT8 (11758183_x_at) / RFU CNN1 (11734310_a_at) / Fold change /veh CNN1 (11734310_a_at) / RFU VPS37D (11726825_at) / Fold change /veh VPS37D (11726825_at) / RFU C10orf10 (11716522_x_at) / Fold change /veh C10orf10 (11716522_x_at) / RFU KIR2DL2 /// KIR2DL4 /// KIR2DL5A /// KIR2DL5B /// KIR2DS1 /// KIR2DS2 /// KIR2DS3 /// KIR2DS4 /// KIR3DL3 /// KIR3DL3 /// KIR3DS1 (11738374_at) / Fold change /veh KIR2DL2 /// KIR2DL4 /// KIR2DL5A /// KIR2DL5B /// KIR2DS1 /// KIR2DS2 /// KIR2DS3 /// KIR2DS4 /// KIR3DL3 /// KIR3DL3 /// KIR3DS1 (11738374_at) / RFU C1QL1 (11718748_at) / Fold change /veh C1QL1 (11718748_at) / RFU TMPRSS4 (11747572_a_at) / Fold change /veh TMPRSS4 (11747572_a_at) / RFU HAMP (11756126_x_at) / Fold change /veh HAMP (11756126_x_at) / RFU RNFT2 (11725882_a_at) / Fold change /veh RNFT2 (11725882_a_at) / RFU NR4A2 (11747474_a_at) / Fold change /veh NR4A2 (11747474_a_at) / RFU ABCC12 (11746883_a_at) / Fold change /veh ABCC12 (11746883_a_at) / RFU TMEM136 (11760407_x_at) / Fold change /veh TMEM136 (11760407_x_at) / RFU CLDN22 /// WWC2 (11732394_at) / Fold change /veh CLDN22 /// WWC2 (11732394_at) / RFU HLA-DPB1 (11760878_x_at) / Fold change /veh HLA-DPB1 (11760878_x_at) / RFU SPINT1 (11716480_a_at) / Fold change /veh SPINT1 (11716480_a_at) / RFU GAP43 (11754022_s_at) / Fold change /veh GAP43 (11754022_s_at) / RFU A4GNT (11735810_at) / Fold change /veh A4GNT (11735810_at) / RFU PRB3 (11715151_x_at) / Fold change /veh PRB3 (11715151_x_at) / RFU TUBB4B (11761932_at) / Fold change /veh TUBB4B (11761932_at) / RFU CAPN14 (11732068_a_at) / Fold change /veh CAPN14 (11732068_a_at) / RFU TMCC2 (11721928_a_at) / Fold change /veh TMCC2 (11721928_a_at) / RFU IRGQ (11745062_a_at) / Fold change /veh IRGQ (11745062_a_at) / RFU FAM174B (11720279_a_at) / Fold change /veh FAM174B (11720279_a_at) / RFU TMPRSS4 (11748680_a_at) / Fold change /veh TMPRSS4 (11748680_a_at) / RFU FAM212B (11763350_a_at) / Fold change /veh FAM212B (11763350_a_at) / RFU PLEKHG5 (11743358_a_at) / Fold change /veh PLEKHG5 (11743358_a_at) / RFU ZSCAN30 (11745921_a_at) / Fold change /veh ZSCAN30 (11745921_a_at) / RFU CMKLR1 (11741424_a_at) / Fold change /veh CMKLR1 (11741424_a_at) / RFU LOC101060620 /// MAPK8IP1 (11723275_at) / Fold change /veh LOC101060620 /// MAPK8IP1 (11723275_at) / RFU SPTSSB (11747773_x_at) / Fold change /veh SPTSSB (11747773_x_at) / RFU PRSS12 (11739890_at) / Fold change /veh PRSS12 (11739890_at) / RFU BIN1 (11741810_x_at) / Fold change /veh BIN1 (11741810_x_at) / RFU WNT11 (11732464_a_at) / Fold change /veh WNT11 (11732464_a_at) / RFU C10orf10 (11716521_a_at) / Fold change /veh C10orf10 (11716521_a_at) / RFU C5orf56 (11738089_at) / Fold change /veh C5orf56 (11738089_at) / RFU CYB561 (11721691_x_at) / Fold change /veh CYB561 (11721691_x_at) / RFU ANKRD19P (11752326_a_at) / Fold change /veh ANKRD19P (11752326_a_at) / RFU OR2T12 /// OR2T33 /// OR2T8 (11738714_s_at) / Fold change /veh OR2T12 /// OR2T33 /// OR2T8 (11738714_s_at) / RFU VCAN (11748164_a_at) / Fold change /veh VCAN (11748164_a_at) / RFU JSRP1 (11732532_at) / Fold change /veh JSRP1 (11732532_at) / RFU KRTAP10-11 (11738290_x_at) / Fold change /veh KRTAP10-11 (11738290_x_at) / RFU MYO3A (11730013_a_at) / Fold change /veh MYO3A (11730013_a_at) / RFU EBF3 (11725865_a_at) / Fold change /veh EBF3 (11725865_a_at) / RFU CAMK2N1 (11719241_x_at) / Fold change /veh CAMK2N1 (11719241_x_at) / RFU C5orf56 (11738088_a_at) / Fold change /veh C5orf56 (11738088_a_at) / RFU OLFML3 (11715873_a_at) / Fold change /veh OLFML3 (11715873_a_at) / RFU LOC100653217 /// NTM (11731650_a_at) / Fold change /veh LOC100653217 /// NTM (11731650_a_at) / RFU MAPK11 (11762145_a_at) / Fold change /veh MAPK11 (11762145_a_at) / RFU FIZ1 (11724087_x_at) / Fold change /veh FIZ1 (11724087_x_at) / RFU OASL (11726364_x_at) / Fold change /veh OASL (11726364_x_at) / RFU SOX15 (11748057_x_at) / Fold change /veh SOX15 (11748057_x_at) / RFU CD79A (11719716_a_at) / Fold change /veh CD79A (11719716_a_at) / RFU HIST1H1D (11736915_at) / Fold change /veh HIST1H1D (11736915_at) / RFU CASKIN2 (11723855_a_at) / Fold change /veh CASKIN2 (11723855_a_at) / RFU LOC730098 (11760151_x_at) / Fold change /veh LOC730098 (11760151_x_at) / RFU OR4N2 (11742367_at) / Fold change /veh OR4N2 (11742367_at) / RFU PRRT2 (11749266_a_at) / Fold change /veh PRRT2 (11749266_a_at) / RFU SNX32 (11753110_a_at) / Fold change /veh SNX32 (11753110_a_at) / RFU CDHR5 (11726645_a_at) / Fold change /veh CDHR5 (11726645_a_at) / RFU RCAN1 (11760418_a_at) / Fold change /veh RCAN1 (11760418_a_at) / RFU FAM167A (11723789_a_at) / Fold change /veh FAM167A (11723789_a_at) / RFU FAM26E (11764081_at) / Fold change /veh FAM26E (11764081_at) / RFU ISYNA1 (11749810_s_at) / Fold change /veh ISYNA1 (11749810_s_at) / RFU ACY1 (11761880_at) / Fold change /veh ACY1 (11761880_at) / RFU 11764098_at / Fold change /veh 11764098_at / RFU SAMD14 (11745864_x_at) / Fold change /veh SAMD14 (11745864_x_at) / RFU NPB (11741838_a_at) / Fold change /veh NPB (11741838_a_at) / RFU TMPRSS6 (11731388_a_at) / Fold change /veh TMPRSS6 (11731388_a_at) / RFU KRTAP10-2 (11738614_at) / Fold change /veh KRTAP10-2 (11738614_at) / RFU ARHGAP8 /// PRR5-ARHGAP8 (11727945_x_at) / Fold change /veh ARHGAP8 /// PRR5-ARHGAP8 (11727945_x_at) / RFU KRTAP5-7 /// NADSYN1 (11734609_at) / Fold change /veh KRTAP5-7 /// NADSYN1 (11734609_at) / RFU RASL12 (11751679_a_at) / Fold change /veh RASL12 (11751679_a_at) / RFU CDKN2B (11736163_a_at) / Fold change /veh CDKN2B (11736163_a_at) / RFU PRF1 (11729649_at) / Fold change /veh PRF1 (11729649_at) / RFU, ZNF638 /// ZNF638-IT1 / Fold change vs veh, ZNF638 /// ZNF638-IT1 / RFU, PANK3 / Fold change vs veh, PANK3 / RFU, SH3YL1 / Fold change vs veh, SH3YL1 / RFU, ZEB2 / Fold change vs veh, ZEB2 / RFU, NRIP1 / Fold change vs veh, NRIP1 / RFU, PTTG1IP / Fold change vs veh, PTTG1IP / RFU, CAPN2 / Fold change vs veh, CAPN2 / RFU, MED14 / Fold change vs veh, MED14 / RFU, SNORA58 / Fold change vs veh, SNORA58 / RFU, C1orf63 / Fold change vs veh, C1orf63 / RFU, LRRFIP1 / Fold change vs veh, LRRFIP1 / RFU, NDUFAF7 / Fold change vs veh, NDUFAF7 / RFU, SLC12A2 / Fold change vs veh, SLC12A2 / RFU, IBTK / Fold change vs veh, IBTK / RFU, ESF1 / Fold change vs veh, ESF1 / Fold change vs veh, TMEM50B / RFU, TAOK1 / Fold change vs veh, TAOK1 / RFU, ACBD3 / Fold change vs veh, ACBD3 / RFU, TMA16 / Fold change vs veh, TMA16 / RFU, RWDD3 / Fold change vs veh, RWDD3 / RFU, BCAT1 / Fold change vs veh, BCAT1 / RFU, EDEM3 / Fold change vs veh, EDEM3 / RFU, TMEM33 / Fold change vs veh, TMEM33 / RFU, WDR75 / Fold change vs veh, WDR75 / RFU, AHCTF1 / Fold change vs veh, AHCTF1 / RFU, TFRC / Fold change vs veh, TFRC / RFU, ZDHHC17 / Fold change vs veh, ZDHHC17 / RFU, NOM1 / Fold change vs veh, NOM1 / RFU, ARL8B / Fold change vs veh, ARL8B / RFU, ZBTB11 / Fold change vs veh, ZBTB11 / RFU, TAMM41 / Fold change vs veh, TAMM41 / RFU, KIAA1704 /// LOC100996395 / Fold change vs veh, KIAA1704 /// LOC100996395 / RFU, ING1 / Fold change vs veh, ING1 / RFU, TRMT61B / Fold change vs veh, TRMT61B / RFU, FUBP3 / Fold change vs veh, FUBP3 / RFU, TP53 / Fold change vs veh, TP53 / RFU, TNKS2 / Fold change vs veh, TNKS2 / RFU, ZFP14 / Fold change vs veh, ZFP14 / RFU, ACTR2 / Fold change vs veh, ACTR2 / RFU, PPP3R1 / Fold change vs veh, PPP3R1 / RFU, PIK3R1 / Fold change vs veh, PIK3R1 / RFU, HNRNPA1 / Fold change vs veh, HNRNPA1 / RFU, RNF170 / Fold change vs veh, RNF170 / RFU, ZNF28 / Fold change vs veh, ZNF28 / RFU, RNGTT / Fold change vs veh, RNGTT / RFU, OGT / Fold change vs veh, OGT / RFU, BRD1 / Fold change vs veh, BRD1 / RFU, MARS / Fold change vs veh, MARS / RFU, ZNF655 / Fold change vs veh, ZNF655 / RFU, FAHD1 / Fold change vs veh, FAHD1 / RFU, BDP1 / Fold change vs veh, BDP1 / RFU, LRRCC1 / Fold change vs veh, LRRCC1 / RFU, ARID1A / Fold change vs veh, ARID1A / RFU, ZNF146 / Fold change vs veh, ZNF146 / RFU, ZNF330 / Fold change vs veh, ZNF330 / RFU, GPN3 / Fold change vs veh, GPN3 / RFU, C9orf123 / Fold change vs veh, C9orf123 / RFU, N4BP2L2 / Fold change vs veh, N4BP2L2 / RFU, ARFIP1 / Fold change vs veh, ARFIP1 / RFU, FAM179B / Fold change vs veh, FAM179B / RFU, BCL10 / Fold change vs veh, BCL10 / RFU, UHRF1BP1L / Fold change vs veh, UHRF1BP1L / RFU, BET1 / Fold change vs veh, BET1 / RFU, CNOT2 / Fold change vs veh, CNOT2 / RFU, ZNF268 / Fold change vs veh, ZNF268 / Fold change vs veh, ZNF507 / RFU, DGCR2 / Fold change vs veh, DGCR2 / RFU, WDSUB1 / Fold change vs veh, WDSUB1 / Fold change vs veh, HSP90B1 /// MIR3652 / RFU, ADSS / Fold change vs veh, ADSS / RFU, GK / Fold change vs veh, GK / RFU, ZNF148 / Fold change vs veh, ZNF148 / RFU, TAF9 / Fold change vs veh, TAF9 / RFU, SLC1A5 / Fold change vs veh, SLC1A5 / RFU, SLMO2 / Fold change vs veh, SLMO2 / RFU, ABCC4 / Fold change vs veh, ABCC4 / RFU, LOC101060439 /// RAP1B / Fold change vs veh, LOC101060439 /// RAP1B / RFU, RFX7 / Fold change vs veh, RFX7 / RFU, GTPBP10 / Fold change vs veh, GTPBP10 / RFU, CNEP1R1 / Fold change vs veh, CNEP1R1 / RFU, BIVM-ERCC5 /// ERCC5 / Fold change vs veh, BIVM-ERCC5 /// ERCC5 / RFU, ILF3 / Fold change vs veh, ILF3 / RFU 11762660_at / Fold change /veh 11762660_at / RFU VCAN (11757783_s_at) / Fold change /veh VCAN (11757783_s_at) / RFU DDX43 (11728927_at) / Fold change /veh DDX43 (11728927_at) / RFU KRT8 (11758188_x_at) / Fold change /veh KRT8 (11758188_x_at) / RFU NKD1 (11759106_at) / Fold change /veh NKD1 (11759106_at) / RFU SRD5A1 (11742802_a_at) / Fold change /veh SRD5A1 (11742802_a_at) / RFU TPSAB1 /// TPSB2 (11721975_s_at) / Fold change /veh TPSAB1 /// TPSB2 (11721975_s_at) / RFU GSTM3 (11746129_a_at) / Fold change /veh GSTM3 (11746129_a_at) / RFU IL23R (11737362_x_at) / Fold change /veh IL23R (11737362_x_at) / RFU TMEM51 (11727254_a_at) / Fold change /veh TMEM51 (11727254_a_at) / RFU PIWIL2 (11732686_x_at) / Fold change /veh PIWIL2 (11732686_x_at) / RFU ORM1 (11744905_x_at) / Fold change /veh ORM1 (11744905_x_at) / RFU CCDC152 (11743942_at) / Fold change /veh CCDC152 (11743942_at) / RFU ECM1 (11717891_a_at) / Fold change /veh ECM1 (11717891_a_at) / RFU IL23R (11748794_a_at) / Fold change /veh IL23R (11748794_a_at) / RFU TNFAIP8L3 (11732012_x_at) / Fold change /veh TNFAIP8L3 (11732012_x_at) / RFU MBOAT4 (11741988_at) / Fold change /veh MBOAT4 (11741988_at) / RFU 11764193_at / Fold change /veh 11764193_at / RFU TMEM53 (11763286_at) / Fold change /veh TMEM53 (11763286_at) / RFU MAGEB2 (11727129_at) / Fold change /veh MAGEB2 (11727129_at) / RFU TMEM200A (11744735_a_at) / Fold change /veh TMEM200A (11744735_a_at) / RFU CCDC152 (11751479_a_at) / Fold change /veh CCDC152 (11751479_a_at) / RFU FAM211A (11726209_a_at) / Fold change /veh FAM211A (11726209_a_at) / RFU RGS16 (11746705_a_at) / Fold change /veh RGS16 (11746705_a_at) / RFU VCAN (11755009_s_at) / Fold change /veh VCAN (11755009_s_at) / RFU RHOB (11743442_s_at) / Fold change /veh RHOB (11743442_s_at) / RFU RGS16 (11720943_a_at) / Fold change /veh RGS16 (11720943_a_at) / RFU RGS16 (11720944_at) / Fold change /veh RGS16 (11720944_at) / RFU, VPS4B / Fold change vs veh, VPS4B / RFU, CREB1 / Fold change vs veh, CREB1 / RFU, DNAJC13 / Fold change vs veh, DNAJC13 / RFU, GNAQ / Fold change vs veh, GNAQ / RFU, CDK5R1 / Fold change vs veh, CDK5R1 / RFU, ZRANB3 / Fold change vs veh, ZRANB3 / RFU, CUL4A / Fold change vs veh, CUL4A / RFU, CCNY / Fold change vs veh, CCNY / RFU, UFL1 / Fold change vs veh, UFL1 / RFU, COG3 / Fold change vs veh, COG3 / RFU, DIAPH2 / Fold change vs veh, DIAPH2 / RFU, SKA2 / Fold change vs veh, SKA2 / RFU, AFF3 / Fold change vs veh, AFF3 / RFU, LMF1 / Fold change vs veh, LMF1 / RFU, IPO11 / Fold change vs veh, IPO11 / RFU, DFFB / Fold change vs veh, DFFB / RFU, FOXP1 / Fold change vs veh, FOXP1 / RFU, CARD8 / Fold change vs veh, CARD8 / RFU, STRN3 / Fold change vs veh, STRN3 / RFU, ADK / Fold change vs veh, ADK / RFU, RASSF2 / Fold change vs veh, RASSF2 / RFU, WIPF1 / Fold change vs veh, WIPF1 / RFU, LARP1B / Fold change vs veh, LARP1B / RFU, RASA1 / Fold change vs veh, RASA1 / RFU, RB1 / Fold change vs veh, RB1 / RFU, PPFIA1 / Fold change vs veh, PPFIA1 / RFU, MAT2A / Fold change vs veh, MAT2A / RFU, CCT5 / Fold change vs veh, CCT5 / RFU, WDR92 / Fold change vs veh, WDR92 / RFU, CUX1 / Fold change vs veh, CUX1 / RFU, TTC7A / Fold change vs veh, TTC7A / RFU, TMEM135 / Fold change vs veh, TMEM135 / RFU, DEPTOR / Fold change vs veh, DEPTOR / RFU, CPM / Fold change vs veh, CPM / RFU, DNAJB6 / Fold change vs veh, DNAJB6 / RFU, CACNA2D3 / Fold change vs veh, CACNA2D3 / RFU, DTX4 / Fold change vs veh, DTX4 / RFU, TFCP2 / Fold change vs veh, TFCP2 / RFU, GMCL1 /// GMCL1P1 / Fold change vs veh, GMCL1 /// GMCL1P1 / RFU, AEBP2 / Fold change vs veh, AEBP2 / RFU, SNHG1 /// SNORD22 /// SNORD25 /// SNORD26 /// SNORD27 /// SNORD28 /// SNORD29 /// SNORD31 / Fold change vs veh, SNHG1 /// SNORD22 /// SNORD25 /// SNORD26 /// SNORD27 /// SNORD28 /// SNORD29 /// SNORD31 / Fold change (Aza/veh), C12orf56 (ProbeSet 11735607_a_at) / Fold change (ACY-1035/veh), C12orf56 (ProbeSet 11735607_a_at) / Fold change (Aza/veh), FGFR1OP (ProbeSet 11751329_s_at) / Fold change (ACY-1035/veh), FGFR1OP (ProbeSet 11751329_s_at) / Fold change (Aza/veh), VPS36 (ProbeSet 11739960_a_at) / Fold change (ACY-1035/veh), VPS36 (ProbeSet 11739960_a_at) / RFU SYPL1 (11715823_x_at) / Fold change /veh SYPL1 (11715823_x_at) / RFU IGFBP7 (11715501_s_at) / Fold change /veh IGFBP7 (11715501_s_at) / RFU REEP3 (11722064_at) / Fold change /veh REEP3 (11722064_at) / RFU IGLL1 (11728026_x_at) / Fold change /veh IGLL1 (11728026_x_at): dose or concentration left out as unconfirmed. As to conditions: MV-4-11 cells, 48 hours.

As to `Nc1ccc(-c2cccs2)cc1NC(=O)c1ccc2c(c1)cc(C1CC1)n2CCN1CCOCC1` [ACY-1035], the “Fold change /veh IL23R (11737362_x_at)” value was determined as 1.14.

Values taken from article PMC5218480 (PLoS ONE, 2017).
